Experiments:
BT-474 [1] = test: normalised viability (% of control), CellTiter-Blue; higher = more viable cells (100 = DMSO, 0 = benzethonium chloride kill control); conditions: incubation time: 72 h
Method: (§1)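 DSRT, CellTiter-Blue viability, 72 h incubation. Signal is normalised to DMSO and benzethonium chloride controls. Value is the normalised response at dose 1.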

MDA-MB-231 [2] = test: as above; conditions: incubation time: 72 h
Method: as §1

HDQ-P1 [3] = test: as above; conditions: incubation time: 72 h
Method: as §1

SK-BR-3 [4] = test: as above; conditions: incubation time: 72 h
Method: as §1

DU-4475 [5] = test: as above; conditions: incubation time: 72 h
Method: as §1

BT-474 [6] = conditions: 72 h
Summary of the method: (§2)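 For viability, cells received 2.5 µl CellTiter-Blue for 2 h at 37 °C and fluorescence was read at 560/590 nm. Before this, breast cancer cell lines in 20 µl suspension had been incubated for 72 h on 384-well plates pre-loaded with compound dissolved in 5 µl medium. EC50 was obtained from a percent-inhibition dose-response fit censored at the highest concentration, after normalisation of each plate to vehicle and a positive kill control; rows with a zero drug sensitivity score were discarded.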

Hs578T [7] = conditions: 72 h
Summary of the method: as §2

BT-549 = conditions: 72 h
Summary of the method: as §2

MDA-MB-436 = conditions: 72 h
Summary of the method: as §2

CAL-120 [8] = conditions: 72 h
Summary of the method: as §2

MDA-MB-231 [9] = conditions: 72 h
Summary of the method: as §2

HCC1599 [10] = conditions: 72 h
Summary of the method: as §2

HCC1937 = conditions: 72 h
Summary of the method: as §2

MDA-MB-468 = conditions: 72 h
Summary of the method: as §2

SK-BR-3 [11] = conditions: 72 h
Summary of the method: as §2

CAL-85-1 [12] = conditions: 72 h
Summary of the method: as §2

CAL-51 [13] = conditions: 72 h
Summary of the method: as §2

CAL-148 [14] = conditions: 72 h
Summary of the method: as §2

DU-4475 [15] = conditions: 72 h
Summary of the method: as §2

CAL-85-1 [16] = conditions: 72 h; remark: listed apart in the source
Method: (§3)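 Drug sensitivity and resistance testing (DSRT) of breast cancer cell lines in 384-well plates, 5 concentrations in 10-fold dilutions over a compound-specific 10,000-fold range. After 72 h, cytotoxicity was read by CellTox Green fluorescence and viability by CellTiter-Glo luminescence (multiplexed), normalised to DMSO and benzethonium chloride controls. EC50 is the inflection point of the fitted dose-response curve (bottom asymptote free, so it can be relative for partial curves) and is censored at the highest tested concentration. Rows with DSS 0 (no meaningful response) were excluded.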

Hs578T [17] = conditions: 72 h; remark: listed apart in the source
Method: as §3

CAL-120 [18] = conditions: 72 h; remark: listed apart in the source
Method: as §3

MDA-MB-231 [19] = conditions: 72 h; remark: listed apart in the source
Method: as §3

CAL-51 [20] = conditions: 72 h; remark: listed apart in the source
Method: as §3

CAL-148 [21] = conditions: 72 h; remark: listed apart in the source
Method: as §3

HCC1143 [22] = conditions: 72 h
Summary of the method: (§4)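 For viability and cell death testing, 384-well plates carried compound at 5 concentrations in 10-fold steps over a compound-specific 10,000-fold range, and breast cancer cell lines were seeded in 20 µl suspension. After 72 h incubation, cell death was read by CellTox Green fluorescence (485/520 nm) before viability was read by CellTiter-Glo luminescence. EC50 was fitted from the dose-response curves and censored at the top concentration. Normalisation on each plate was to 0.1 % DMSO and a positive kill control.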

HCC1599 [23] = conditions: 72 h; remark: listed apart in the source
Summary of the method: as §4

CAL-148 [24] = conditions: 72 h; remark: listed apart in the source
Summary of the method: as §4

DU-4475 [25] = conditions: 72 h; remark: listed apart in the source
Summary of the method: as §4

HCC1143 [26] = conditions: 72 h; remark: listed apart in the source
Summary of the method: as §2

MFM-223 [27] = conditions: 72 h
Summary of the method: as §2

HDQ-P1 [28] = conditions: 72 h
Summary of the method: as §2

HDQ-P1 [29] = conditions: 72 h; remark: listed apart in the source
Summary of the method: as §4

MFM-223 [30] = conditions: 72 h; remark: listed apart in the source
Summary of the method: as §4

MDA-MB-453 = conditions: 72 h
Method: as §3

| Compound | normalised viability (BT-474 [1]; 1 nM) | normalised viability (MDA-MB-231 [2]; 1 nM) | normalised viability (HDQ-P1 [3]; 1 nM) | normalised viability (SK-BR-3 [4]; 1 nM) | normalised viability (DU-4475 [5]; 1 nM) | EC50, CellTiter-Blue viability (BT-474 [6]) | EC50, CellTiter-Blue viability (Hs578T [7]) | EC50, CellTiter-Blue viability (BT-549) | EC50, CellTiter-Blue viability (CAL-120 [8]) | EC50, CellTiter-Blue viability (MDA-MB-231 [9]) | EC50, CellTiter-Blue viability (HCC1599 [10]) | EC50, CellTiter-Blue viability (HCC1937) | EC50, CellTiter-Blue viability (MDA-MB-468) | EC50, CellTiter-Blue viability (SK-BR-3 [11]) | EC50, CellTiter-Blue viability (CAL-85-1 [12]) | EC50, CellTiter-Blue viability (CAL-51 [13]) | EC50, CellTiter-Blue viability (CAL-148 [14]) | EC50, CellTiter-Blue viability (DU-4475 [15]) | EC50, CellTox Green (CAL-85-1 [16]) | EC50, CellTiter-Glo (DU-4475 [25]) | also measured |
| --- | --- | --- | --- | --- | --- | --- | --- | --- | --- | --- | --- | --- | --- | --- | --- | --- | --- | --- | --- | --- | --- |
| C[C@]12CC[C@H](O)CC1=CC[C@@H]1[C@@H]2CC[C@]2(C)C(c3cccnc3)=CC[C@@H]12 [Abiraterone] |  |  |  |  |  |  |  |  |  |  |  |  |  |  |  |  |  |  |  |  | normalised viability (BT-474 [1]; 0.5 nM): 86.1%; normalised viability (MDA-MB-231 [2]; 0.5 nM): 96%; normalised viability (HDQ-P1 [3]; 0.5 nM): 109%; normalised viability (SK-BR-3 [4]; 0.5 nM): 96.1%; normalised viability (DU-4475 [5]; 0.5 nM): 99.4% |
| CNNCc1ccc(C(=O)NC(C)C)cc1 [Procarbazine] | 92.5% | 112% | 120% | 106% | 110% |  |  |  |  |  |  |  |  |  |  |  |  |  |  |  |  |
| O=C1NC(=O)[C@@H](c2cn3c4c(cccc24)CCC3)[C@@H]1c1c[nH]c2ccccc12 [Tivantinib] |  |  |  |  |  | 613 nM | 592 nM | 340 nM | 398 nM | 676 nM | 331 nM | 99 nM | 578 nM | 597 nM | 543 nM | 674 nM | 759 nM | 847 nM | 266 nM | 222 nM | EC50, CellTiter-Blue viability (MDA-MB-436): 43.5 nM; normalised viability (BT-474 [1]; 0.1 nM): 128%; normalised viability (MDA-MB-231 [2]; 0.1 nM): 111%; normalised viability (HDQ-P1 [3]; 0.1 nM): 83.2%; normalised viability (SK-BR-3 [4]; 0.1 nM): 95%; normalised viability (DU-4475 [5]; 0.1 nM): 107%; EC50, CellTox Green (Hs578T [17]): 96.6 nM; EC50, CellTox Green (CAL-120 [18]): 399 nM; EC50, CellTox Green (MDA-MB-231 [19]): 474 nM; EC50, CellTox Green (CAL-51 [20]): 671 nM; EC50, CellTox Green (CAL-148 [21]): 6.67 nM; EC50, CellTiter-Glo (HCC1143 [22]): > 1000 nM; EC50, CellTiter-Glo (HCC1599 [23]): 973 nM; EC50, CellTiter-Glo (CAL-148 [24]): 810 nM |
| Cn1cncc1[C@@](N)(c1ccc(Cl)cc1)c1ccc2c(c1)c(-c1cccc(Cl)c1)cc(=O)n2C [Tipifarnib] | 92.1% | 98.8% | 105% | 92.5% | 104% | 1450 nM | 4400 nM | 3730 nM | 55.5 nM | 97.8 nM | 151 nM | 101 nM | 5590 nM | 540 nM | 33.1 nM | 1500 nM | 33 nM | 59.1 nM | 4740 nM | 412 nM | EC50, CellTiter-Blue viability (HCC1143 [26]): 7.7 nM; EC50, CellTiter-Blue viability (MFM-223 [27]): 1010 nM; EC50, CellTiter-Blue viability (HDQ-P1 [28]): 16.6 nM; EC50, CellTox Green (CAL-51 [20]): 19.9 nM; EC50, CellTiter-Glo (HCC1599 [23]): 8630 nM; EC50, CellTiter-Glo (HDQ-P1 [29]): 106 nM; EC50, CellTiter-Glo (CAL-148 [24]): 380 nM; EC50, CellTiter-Glo (MFM-223 [30]): 5050 nM |
| COc1ccccc1S(=O)(=O)Nc1ccc2c(c1)CN(C)C(=O)N2 [PFI-1] |  |  |  |  |  |  |  |  |  |  |  |  |  |  |  |  |  |  | 9560 nM | 2670 nM | EC50, CellTiter-Glo (MFM-223 [30]): 3190 nM |
| CC(C)(C#N)c1cc(Cn2cncn2)cc(C(C)(C)C#N)c1 [Anastrozole] | 73.5% | 91.7% | 101% | 97.7% | 94% |  |  |  |  |  |  |  |  |  |  |  |  |  |  |  | EC50, CellTox Green (MDA-MB-453): > 10000 nM |
